Data on 27 molecules can be found in patent publication US10111874B2, “Combination therapies for treatment of cancer” (Araxes Pharma LLC, priority 2014, dated 2018).

In this assay the target is T1, KRAS G12C 1-169, his-tagged protein, GDP-loaded (Homo sapiens, UniProt P01116, G12C).
T1 construct: KRAS G12C 1-169, his-tagged protein, GDP-loaded
Briefly: Biochemical assay: covalent binding to KRAS G12C analyzed by mass spectrometry. As to the method: Compounds were tested for activity as follows:
Compounds were diluted to 50× final test concentration in DMSO in 96-well storage plates. […] Reactions were mixed carefully and thoroughly by pipetting up/down with a 200 μl multi-channel pipettor. […] 5 μl of 2% formic acid (Fisher cat#A117) in DI H2O was then added to each well followed by mixing with a pipette. The plate was then resealed with aluminum seal and stored on dry ice until analyzed as described below.
The above described assays were analyzed by mass spectrometry according to the following procedure:
The MS instrument is set to positive polarity, 2 GHz resolution, and low mass (1700) mode and allowed to equilibrate for 30 minutes. The instrument is then calibrated, switched to acquisition mode and the appropriate method loaded.
After another 30 minute equilibration time, a blank batch (i.e., buffer) is run to ensure equipment is operating properly. The samples are thawed at 37° C. for 10 minutes, briefly centrifuged, and transfer to the bench top. Wells A1 and H12 are spiked with 1 μL 500 μM internal standard peptide, and the plates centrifuged at 2000×g for 5 minutes. The method is then run and masses of each individual well recorded.
The masses (for which integration data is desired) for each well are pasted into the platemap and exported from the analysis. Masses for the internal standards are exported as well. The data at 50 ppm is extracted for the +19 charge state, and identity of well A1 is assigned using the internal standard spike and integrated. Peak data is exported as a TOF list and the above steps are repeated individually, for the +20, 21, 22, 23, 24, and 25 charge states.

Setting [1] is: compounds 48-246, measured at 2 h.
[2] abbreviates: compounds 247-342, measured at 30 min.
Setting [3] is: compounds 1-47, measured at 24 h.

T1 sequence (P01116 1-169 isoform P01116-2 G12C): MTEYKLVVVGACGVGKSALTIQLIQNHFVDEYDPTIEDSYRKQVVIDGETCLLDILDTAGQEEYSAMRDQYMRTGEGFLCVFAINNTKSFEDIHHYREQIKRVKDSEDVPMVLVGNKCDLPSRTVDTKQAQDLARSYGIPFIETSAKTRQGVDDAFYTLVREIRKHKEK

As for `C=CC(=O)N1CCC(N2CCN(C(=O)CNc3cc(CC)c(Cl)cc3O)CC2)C1` (stereo not drawn) [II-12, 1-(3-(4-(2-(4-chloro-5-ethyl-2-hydroxyphenylamino)-acetyl)piperazin-1-yl)pyrrolidin-1-yl)prop-2-en-1-one], the Binding % result (determined at 24 hrs) was “+++ (+++indicates binding activity greater than 25% and up to 50%)”.
On to `C=CC(=O)N1CCN(c2ncnc3cc(-c4ccccc4CC(N)=O)c(Cl)cc23)CC1` [Compound I-161, 2-(2-(4-(4-acryloylpiperazin-1-yl)-6-chloroquinazolin-7-yl)phenyl)acetamide], for which the Binding % entry under setting [1] is “++ (++indicates binding activity greater than 25% and up to 50%)”.
On to `C=CC(=O)N1CCN(c2ncnc3c(F)c(-c4c(O)cccc4F)c(C(F)(F)F)cc23)CC1` [Compound I-273, 1-(4-(8-fluoro-7-(2-dluoro-6-hydroxyphenyl)-6-(trifluoromethyl)quinaozlin-4-yl)piperazin-1-yl)prop-2-en-1-one], for which, under setting [2], the Binding % entry is on record as “++++ (++++indicates binding activity greater than 75%)”.
On to `C=CC(=O)N1CCN(c2ncnc3c(F)c(-c4c(C)ccc5[nH]ncc45)c(Cl)cc23)CC1CO` (stereo not drawn) [Compound 320, 1-(4-(6-chloro-8-fluoro-7-(5-methyl-1H-indazol-4-yl)quinazolin-4-yl)-2-(hydroxymethyl)piperazin-1-yl)prop-2-en-1-one], for which the Binding % result under setting [2] is “++ (++indicates binding activity greater than 25% and up to 50%)”.
As for `C=CC(=O)N1CCN(c2ncnc3cc(-c4ccccc4F)c(C#N)cc23)CC1` [Compound I-137, 4-(4-acryloylpiperazin-1-yl)-7-(2-fluorophenyl)quinazoline-6-carbonitrile], the Binding % result under setting [1] was “+ (+indicates binding activity from 5% to 25%)”.
Regarding `C=CC(=O)N1CCN(c2ncnc3cc(Cl)c(-c4cccc(O)c4)cc23)CC1` [Compound I-14, 1-(4-(7-chloro-6-(3-hydroxyphenyl)quinazolin-4-yl)piperazin-1-yl)prop-2-en-1-one], the Binding % entry under setting [3] is “++ (++indicates binding activity greater than 25% and up to 50%)”.
`C=CC(=O)N1CCN(c2ncnc3cc(-c4cccc(C(=O)NC5CC5)c4)c(Cl)cc23)CC1` [Compound I-142, 3-(4-(4-acryloylpiperazin-1-yl)-6-chloroquinazolin-7-yl)-N-cyclopropylbenzamide]: under setting [1], the Binding % entry was “+ (+indicates binding activity from 5% to 25%)”.
In the case of `C=CC(=O)N1CC(N2CCN(C(=O)CNc3cc4ccccc4cc3O)CC2)C1` [II-43, 1-(3-(4-(2-(3-hydroxynaphthalen-2-ylamino)acetyl)-piperazin-1-yl)azetidin-1-yl)prop-2-en-1-one], under “determined at 24 hrs”, the Binding % result is reported as “++++ (++++indicates binding activity greater than 50%)”.
On to `C=CC(=O)N1CCN(c2ncnc3cc(-c4ccc5[nH]ncc5c4)c(Cl)cc23)CC1` [Compound I-144, 1-(4-(6-chloro-7-(1H-indazol-5-yl)quinazolin-4-yl)piperazin-1-yl)prop-2-en-1-one], for which the Binding % result under setting [1] is listed as “+ (+indicates binding activity from 5% to 25%)”.
For `C=CC(=O)N1CCN(c2c(C#N)cnc3cc(Cl)c(-c4ccc(Cl)cc4)cc23)CC1` [Compound I-42, 4-(4-acryloylpiperazin-1-yl)-7-chloro-6-(4-chlorophenyl)quinoline-3-carbonitrile], under setting [3], the Binding % result was “+++ (+++indicates binding activity greater than 50% and up to 75%)”.
As to `C=CC(=O)N1CCN(c2ncnc3cc(-c4cccc5cnccc45)c(Cl)cc23)CC1` [Compound I-136, 1-(4-(6-chloro-7-(isoquinolin-5-yl)quinazolin-4-yl)piperazin-1-yl)prop-2-en-1-one], under setting [1], the Binding % entry was “++ (++indicates binding activity greater than 25% and up to 50%)”.
In the case of `C=CC(=O)N1CCN(c2ncnc3cc(Cl)c(-c4cc(Cl)ccc4O)cc23)CC1` [Compound I-10, 1-(4-(7-chloro-6-(5-chloro-2-hydroxyphenyl)quinazolin-4-yl)piperazin-1-yl)prop-2-en-1-one], the Binding % result under setting [3] is “++ (++indicates binding activity greater than 25% and up to 50%)”.
With `C=CC(=O)N1CCN(c2c(C#N)cnc3c(F)c(-c4c(O)cccc4F)c(Cl)cc23)CC1` [Compound I-246, 4-(4-acryloylpiperazin-1-yl)-6-chloro-8-fluoro-7-(2-fluoro-6-hydroxyphenyl)quinoline-3-carbonitrile], under setting [1], the Binding % entry is listed as “++++ (++++indicates binding activity greater than 75%)”.
In the case of `C=CC(=O)N1CCC2(C1)CN(C(=O)CNc1cc(Cl)c(Cl)cc1O)C2` [Example 40, 1-(2-(2-(4,5-dichloro-2-hydroxyphenylamino)acetyl)-2,6-diazaspiro[3.4]octan-6-yl)prop-2-en-1-one], the Binding % entry under setting [3] is “+++ (+++indicates binding activity greater than 50% and up to 75%)”.
As to `C=CC(=O)N1CC(N2CCN(C(=O)CNc3cc(C4(C)CC4)c(Cl)cc3O)CC2)C1` [II-64, 1-(3-(4-(2-((4-Chloro-2-hydroxy-5-(1-methylcyclopropyl)phenyl)amino)acetyl)piperazin-1-yl)azetidin-1-yl)prop-2-en-1-one], the Binding % result (determined at 2 hrs) is “++ (++indicates binding activity greater than 20%)”.
In the case of `C=CC(=O)N1CCN(c2ncnc3cc(-c4cc(C5CC5)ccc4F)c(Cl)cc23)CC1` [Compound I-147, 1-(4-(6-chloro-7-(5-cyclopropyl-2-fluorophenyl)quinazolin-4-yl)piperazin-1-yl)prop-2-en-1-one], the Binding % result under setting [1] is “++ (++indicates binding activity greater than 25% and up to 50%)”.
As to `C=CC(=O)N1CC(N2CCN(C(=O)C(C)Nc3cc(Cl)c(Cl)cc3O)CC2)C1` (stereo not drawn) [II-31, 1-(3-(4-(2-(4,5-dichloro-2-hydroxyphenylamino)-propanoyl)-piperazin-1-yl)azetidin-1-yl)prop-2-en-1-one], the Binding % result (determined at 24 hrs) is given as “++++ (++++indicates binding activity greater than 50%)”.
`C=CC(=O)N1CCN(c2nc(N)nc3cc(-c4c(C)ccc5[nH]ncc45)c(Cl)cc23)CC1` [Compound 319, 1-(4-(2-amino-6-chloro-7-(5-methyl-1H-indazol-4-yl)quinazolin-4-yl)piperazin-1-yl)prop-2-en-1-one]: under setting [2], the Binding % entry was “++ (++indicates binding activity greater than 25% and up to 50%)”.
On to `C=CC(=O)N1CCN(c2ncnc3cc(-c4cc(-c5cn[nH]c5)ccc4F)c(Cl)cc23)CC1` [Compound I-188, 1-(4-(6-chloro-7-(2-fluoro-5-(1H-pyrazol-4-yl)phenyl)quinazolin-4-yl)piperazin-1-yl)prop-2-en-1-one], for which, under setting [1], the Binding % result is “+++ (+++indicates binding activity greater than 50% and up to 75%)”.
Same read-out and setting: then `C=CC(=O)N1CCN(c2cnnc3cc(-c4ccc(F)cc4F)c(Cl)cc23)CC1` [Compound I-221, 1-(4-(6-chloro-7-(2,4-difluorophenyl)cinnolin-4-yl)piperazin-1-yl)prop-2-en-1-one], with “++ (++indicates binding activity greater than 25% and up to 50%)”.
As for `C=CC(=O)NC1CN(C2CN(C(=O)CNc3cc(Cl)c(Cl)cc3O)C2)C1` [II-3, N-(1′-(2-(4,5-dichloro-2-hydroxyphenyl-amino)acetyl)-1,3′-biazetidin-3-yl)acrylamide], the Binding % result (determined at 24 hrs) is reported as “++++ (++++indicates binding activity greater than 50%)”.
As for `C=CC(=O)N1CCN(c2ncnc3cc(-c4ccc(F)cc4C(N)=O)c(Cl)cc23)CC1` [Compound I-193, 2-(4-(4-acryloylpiperazin-1-yl)-6-chloroquinazolin-7-yl)-5-fluorobenzamide], under setting [1], the Binding % entry was “++ (++indicates binding activity greater than 25% and up to 50%)”.
Turning to `C=CC(=O)N1CCN(c2ncnc3cc(-c4ccc(O)cc4C(F)(F)F)c(Cl)cc23)CC1` [Compound I-169, 1-(4-(6-chloro-7-(4-hydroxy-2-(trifluoromethyl)phenyl)quinazolin-4-yl)piperazin-1-yl)prop-2-en-1-one], the Binding % entry under setting [1] was “+++ (+++indicates binding activity greater than 50% and up to 75%)”.
On to `C=CC(=O)N1CCN(c2ncnc3[nH]cc(-c4ccccc4Cl)c23)CC1` [Compound I-28, 1-(4-(5-(2-chlorophenyl)-7H-pyrrolo[2,3-d]pyrimidin-4-yl)piperazin-1-yl)prop-2-en-1-one], for which the Binding % result under setting [3] is on record as “+ (+indicates binding activity from 5% to 25%)”.
Turning to `C=CC(=O)N1CCN(c2ncnc3c(F)c(-c4ccccc4C(N)=O)c(Cl)cc23)CC1` [Compound I-236, 2-(4-(4-acryloylpiperazin-1-yl)-6-chloro-8-fluoroquinazolin-7-yl)benzamide], the Binding % result under setting [1] was “+++ (+++indicates binding activity greater than 50% and up to 75%)”.
For `C=CC(=O)N1CCN(c2ncnc3c(F)c(-c4ccccc4C(C)(C)O)c(Cl)cc23)CC1` [Compound I-278, 1-(4-(6-chloro-8-fluoro-7-(2-(2-hydroxypropan-2-yl)phenyl)quinazolin-4-yl)piperazin-1-yl)prop-2-en-1-one], the Binding % entry under setting [2] is “++ (++indicates binding activity greater than 25% and up to 50%)”.
`C=CC(=O)N1CCN(c2nc(NCCN(C)C)nc3c(F)c(-c4c(C)ccc5[nH]ncc45)c(Cl)cc23)CC1` [Compound I-253]: the Binding % result under setting [2] is “++++ (++++indicates binding activity greater than 75%)”.
